# Measurements from ChEMBL document CHEMBL3045278, “Anticonvulsant and sedative-hypnotic activity of some novel 3-[5-(4-substituted) phenyl-1,3,4-oxadiazole-2yl]-2-styrylquinazoline-4(3H)-ones” (Med Chem Res, 2010).
# Calls of active or inactive are those of the source. No cut-off for these calls is given here.
# Tests used:
# Mus musculus [1] = experiment: Anticonvulsant activity in Mus musculus albino (mouse) assessed as protection against subcutaneous pentylenetetrazol-induced seizures at 300 mg/kg, ip measured at 0.5 hr; assay type: functional, organism-based; design: dose 300 mg/kg
# Mus musculus [2] = experiment: Anticonvulsant activity in Mus musculus albino (mouse) assessed as protection against maximal electroshock-induced seizures at 300 mg/kg, ip measured at 4 hr; assay type: functional, organism-based; design: dose 300 mg/kg
# Mus musculus [3] = experiment: Neurotoxicity in ip dosed Mus musculus albino (mouse) assessed as minimal motor impairment measured at 0.5 hr; assay type: toxicity, organism-based; details: in vivo
# Mus musculus [4] = species: Mus musculus; experiment: Sedative-hypnotic activity in Mus musculus albino (mouse) assessed as increase in phenobarbitone-induced sleeping time; assay type: functional, organism-based
# Mus musculus [5] = experiment: Anticonvulsant activity in Mus musculus albino (mouse) assessed as protection against maximal electroshock-induced seizures at 300 mg/kg, ip measured at 0.5 hr; assay type: functional, organism-based; design: dose 300 mg/kg
# Mus musculus [6] = experiment: Anticonvulsant activity in Mus musculus albino (mouse) assessed as protection against subcutaneous pentylenetetrazol-induced seizures at 300 mg/kg, ip measured at 4 hr; assay type: functional, organism-based; design: dose 300 mg/kg
# Mus musculus [7] = experiment: Neurotoxicity in Mus musculus albino (mouse) assessed as minimal motor impairment at 300 mg/kg, ip measured at 4 hr; assay type: toxicity, organism-based; design: dose 300 mg/kg, route intraperitoneal; details: in vivo
# Mus musculus [8] = experiment: Behavioral activity in Mus musculus albino (mouse) assessed as inhibition of locomotion at 100 mg/kg, ip after 1 hr by actophotometric analysis relative to control; assay type: functional; details: route intraperitoneal
# Rattus norvegicus [9] = experiment: Antidepressant activity in Rattus norvegicus Wistar (rat) assessed as immobility time at 100 mg/kg, ip after 60 min by forced swim pool test relative to control; details: route intraperitoneal
# Mus musculus [10] = experiment: Anticonvulsant activity in ip dosed Mus musculus albino (mouse) assessed as protection against subcutaneous pentylenetetrazol-induced seizures measured at 0.5 hr; assay type: functional; details: read-out: MED
# Mus musculus [11] = experiment: Neurotoxicity in Mus musculus albino (mouse) assessed as minimal motor impairment at 300 mg/kg, ip measured at 0.5 hr; assay type: toxicity, organism-based; design: dose 300 mg/kg, route intraperitoneal; details: in vivo
# Mus musculus [12] = experiment: Anticonvulsant activity in ip dosed Mus musculus albino (mouse) assessed as protection against maximal electroshock-induced seizures measured at 4 hr; assay type: functional; details: read-out: MED
# Mus musculus [13] = experiment: Anticonvulsant activity in ip dosed Mus musculus albino (mouse) assessed as protection against subcutaneous pentylenetetrazol-induced seizures measured at 4 hr; assay type: functional; details: read-out: MED
# Mus musculus [14] = experiment: Anticonvulsant activity in ip dosed Mus musculus albino (mouse) assessed as protection against maximal electroshock-induced seizures measured at 0.5 hr; assay type: functional; details: read-out: MED
# Mus musculus [15] = experiment: Neurotoxicity in ip dosed Mus musculus albino (mouse) assessed as minimal motor impairment measured at 4 hr; assay type: toxicity, organism-based; details: in vivo
# Mus musculus [16] = experiment: Behavioral activity in Mus musculus albino (mouse) assessed as inhibition of locomotion at 25 mg/kg, ip after 1 hr by actophotometric analysis relative to control; assay type: functional; details: route intraperitoneal
# Rattus norvegicus [17] = experiment: Antidepressant activity in Rattus norvegicus Wistar (rat) assessed as immobility time at 25 mg/kg, ip after 60 min by forced swim pool test relative to control; details: route intraperitoneal
SMILES,Activity (Mus musculus [1]),Activity (Mus musculus [2]),MTC (Mus musculus [3]) [mg/kg],Activity (Mus musculus [4]),Activity (Mus musculus [5]),Activity (Mus musculus [6]),Activity (Mus musculus [7]),inhibition in vivo at 100 mg/kg (Mus musculus [8]) [%],Time (Rattus norvegicus [9]) [s],minimal effective dose (Mus musculus [10]) [mg/kg],Activity (Mus musculus [11]),minimal effective dose (Mus musculus [12]) [mg/kg],minimal effective dose (Mus musculus [13]) [mg/kg],minimal effective dose (Mus musculus [14]) [mg/kg],MTC (Mus musculus [15]) [mg/kg],inhibition in vivo at 25 mg/kg (Mus musculus [16]) [%],Time (Rattus norvegicus [17]) [s]
Cc1ccc(/C=C/c2nc3ccccc3c(=O)n2-c2nnc(-c3ccc(N(C)C)cc3)o2)cc1,inactive,inactive,100,inactive,inactive,inactive,Non-toxic,37,125.42,–,–,–,–,–,–,–,–
CCCC(CCC)C(=O)[O-].[Na+] [VALPROATE SODIUM],–,inactive,–,–,inactive,inactive,Non-toxic,–,–,300,Non-toxic,–,–,–,–,–,–
COc1ccc(-c2nnc(-n3c(/C=C/c4ccccc4)nc4ccccc4c3=O)o2)cc1,inactive,inactive,300,inactive,inactive,inactive,Non-toxic,41,163.75,–,–,–,–,–,–,–,–
O=c1c2ccccc2nc(/C=C/c2ccc(Cl)cc2)n1-c1nnc(-c2ccccc2)o1,inactive,inactive,–,inactive,inactive,inactive,Non-toxic,51,151.11,–,Non-toxic,–,–,–,–,–,–
Cc1ccc(/C=C/c2nc3ccccc3c(=O)n2-c2nnc(-c3ccc(C)cc3)o2)cc1,inactive,inactive,–,inactive,inactive,inactive,Non-toxic,40,163.21,–,Non-toxic,–,–,–,–,–,–
COc1ccc(-c2nnc(-n3c(/C=C/c4ccc(Cl)cc4)nc4ccccc4c3=O)o2)cc1,inactive,inactive,–,inactive,inactive,inactive,Non-toxic,50,184.36,–,Non-toxic,–,–,–,–,–,–
O=c1c2ccccc2nc(/C=C/c2ccccc2)n1-c1nnc(-c2ccccc2)o1,inactive,inactive,–,inactive,inactive,inactive,Non-toxic,48,113.14,–,Non-toxic,–,–,–,–,–,–
O=c1c2ccccc2nc(/C=C/c2ccccc2)n1-c1nnc(-c2ccc(Cl)cc2)o1,inactive,inactive,–,inactive,inactive,inactive,Non-toxic,38,217.93,–,Non-toxic,–,–,–,–,–,–
COc1ccc(-c2nnc(-n3c(/C=C/c4ccc(C)cc4)nc4ccccc4c3=O)o2)cc1,inactive,inactive,–,inactive,inactive,inactive,Non-toxic,42,182.82,–,Non-toxic,–,–,–,–,–,–
Cc1ccc(-c2nnc(-n3c(/C=C/c4ccc(Cl)cc4)nc4ccccc4c3=O)o2)cc1,inactive,inactive,–,inactive,inactive,inactive,Non-toxic,56,150.76,–,Non-toxic,–,–,–,–,–,–
CN(C)c1ccc(-c2nnc(-n3c(/C=C/c4ccccc4)nc4ccccc4c3=O)o2)cc1,inactive,inactive,–,inactive,inactive,inactive,Non-toxic,30,50.23,–,Non-toxic,–,–,–,–,–,–
Cc1ccc(/C=C/c2nc3ccccc3c(=O)n2-c2nnc(-c3ccccc3)o2)cc1,inactive,inactive,–,inactive,inactive,inactive,Non-toxic,47,160.05,–,Non-toxic,–,–,–,–,–,–
CN(C)c1ccc(-c2nnc(-n3c(/C=C/c4ccc(Cl)cc4)nc4ccccc4c3=O)o2)cc1,–,–,100,inactive,–,–,–,49,121.21,300,–,100,300,100,100,–,–
O=C1NC(=O)C(c2ccccc2)(c2ccccc2)N1 [PHENYTOIN],inactive,–,100,–,–,inactive,–,–,–,–,–,30,–,30,100,70,–
Cc1ccc(-c2nnc(-n3c(/C=C/c4ccccc4)nc4ccccc4c3=O)o2)cc1,inactive,inactive,–,inactive,inactive,inactive,Non-toxic,48,152.39,–,Non-toxic,–,–,–,–,–,–
NC(=O)N1c2ccccc2C=Cc2ccccc21 [CARBAMAZEPINE],–,–,100,–,–,–,–,–,–,100,–,100,300,30,300,–,240.3
O=c1c2ccccc2nc(/C=C/c2ccc(Cl)cc2)n1-c1nnc(-c2ccc(Cl)cc2)o1,inactive,inactive,100,inactive,inactive,inactive,Non-toxic,53,100.12,–,–,–,–,–,–,–,–
Cc1ccc(/C=C/c2nc3ccccc3c(=O)n2-c2nnc(-c3ccc(Cl)cc3)o2)cc1,inactive,inactive,–,inactive,–,inactive,Non-toxic,45,135.18,–,Non-toxic,–,–,300,–,–,–
